{
  "source": "paper PMC9674596",
  "about": "“Origin of acetylcholine antagonism in ELIC, a bacterial pentameric ligand-gated ion channel” (Communications Biology, 2022)",
  "target": "T1, wild-type ELIC (Dickeya chrysanthemi, UniProt P0C7B7, INS163G)",
  "T1 construct": "expressed in transfected cells; host or cells: Xenopus laevis oocytes injected with cRNA from ELIC-pTLN",
  "experiment": "Two-electrode voltage clamp, whole-cell currents of wild-type ELIC expressed in Xenopus laevis oocytes",
  "format": "cell-based, Erwinia chrysanthemi",
  "description": "Stage V-VI Xenopus laevis oocytes were isolated[72] and deflocculated enzymatically in ND96 buffer without Ca^2+ (96 mM NaCl, 2 mM KCl, 1 mM MgCl2, 2 mM pyruvate, 5 mM HEPES, pH 7.4), but supplemented with 1 mg/mL collagenase B and 1 mg/mL trypsin inhibitor, for 2 h at room temperature under constant stirring. The deflocculation buffer was then gradually removed by washing the oocytes in ND96 buffer (96 mM NaCl, 2 mM KCl, 1 mM MgCl2, 1 mM CaCl2, 2 mM pyruvate, 5 mM HEPES, pH 7.4) for several iterations. The oocytes were then allowed to stir for an additional hour at room temperature under constant stirring with the buffer being periodically replaced until clear. To obtain optimal receptor expression, individually selected and healthy oocytes were injected with 0.2 ng cRNA for wild-type ELIC and 5 ng cRNA for mutants. Subsequently, oocytes were incubated for one day at 16 °C in ND96^+ buffer (96 mM NaCl, 2 mM KCl, 1 mM MgCl2, 1 mM CaCl2, 2 mM pyruvate, and 5 mM HEPES at pH 7.6). After expression, injected oocytes were placed in a RC-1Z oocyte chamber (Harvard Apparatus; Hamden, CT) containing buffer (pH 7.4) composed of 150 mM NaCl, 0.5 mM BaCl2, 10 mM HEPES, and 1 mM dithiothreitol or 1 µM atropine if cysteamine, or ACh, was used in the experiment, respectively. The presence of the reducing agent, dithiothreitol, ensures that the sulfhydryl group of cysteamine remains reduced.\nOnce in the oocyte chamber, whole-cell currents were recorded using a two-electrode voltage-clamp apparatus (OC-725C oocyte clamp; Harvard Apparatus), with a buffer flow rate of 5–10 mL min^−1. Currents in response to various additions of cysteamine and/or ACh, were measured with the transmembrane voltage clamped at −60 mV. Dose response curves for each wild-type and mutant ELIC were acquired from at least five oocytes in two different batches.\nFor identifying the half maximal effective concentration (EC50) and apparent Hill coefficient (nH) of cysteamine, dose response curves were created by taking the magnitude of each cysteamine-activated peak current (I) and normalizing this value to the maximal peak current in the presence of excess agonist (Imax). The log (base 10) cysteamine concentration in molar was then plotted on the x-axis against the fractional response (I/Imax) on the y-axis. The data was fitted using nonlinear regression with a variable slope sigmoidal dose response (Eq. 1, below) in GraphPad Prism (v.8.0.0).1 y=1/1+10^nH^LogEC50−X\nIndividual EC50 and Hill coefficients were averaged for each oocyte to derive a mean ± standard deviation. […] […] The log (base 10) ACh concentration was then plotted on the x-axis against the fractional response (I/Io) on the y-axis. Subsequent steps were the same as above for deriving a cysteamine EC50 and Hill coefficient. The individual IC50 and Hill coefficients were averaged for each oocyte to derive a mean ± one standard deviation. Lastly, to identify four normalized response values, cysteamine at the 10% maximal effective concentration (EC10), 20% maximal effective concentration (EC20), EC50 and 90% maximal effective concentration (EC90), was applied in the presence and absence of 25 mM ACh. The cysteamine-activated peak current with 25 mM ACh, was normalized to the cysteamine-activated peak current without ACh.",
  "data": [
    {"smiles": "NCCS", "note": "[cysteamine]", "values": [
      {"measurement": "Cysteamine concentration corresponding to EC10", "setting": "WT", "value": 200, "unit": "µM"},
      {"measurement": "Cysteamine concentration corresponding to EC20", "setting": "WT", "value": 300, "unit": "µM"},
      {"measurement": "Activation Hill coefficient", "setting": "WT ELIC, agonist activation", "value": "2.6 ± 0.4"},
      {"measurement": "EC50", "setting": "WT ELIC, agonist-activated peak current, −60 mV, mean ± s.d., read-out: Activation EC50", "value": "600 ± 100", "unit": "µM"},
      {"measurement": "Peak current on application of ligand alone", "setting": "WT, ACh 0.5 mM to 50 mM, followed by 5 mM cysteamine", "value": "robust peak current"},
      {"measurement": "EC90", "setting": "WT, read-out: Cysteamine concentration corresponding to EC90", "value": 1300, "unit": "µM"}
    ]}
  ]
}
